How the values were obtained:
HIV-1 TAR RNA = HIV-1 TAR RNA competition FRET binding assay (Tat peptide probe); conditions: 100 nM TAR RNA, 100 nM Tat peptide, 25° C., 60 min
Experimental: Before used, HIV-1 TAR RNA (5′-GGC AGA UCUGAG CCU GGG AGC UCU CUG CC-3′, Thermo Scientific) in 10 μM batch in sterile water was heated to 95° C. for 4.5 min, and then cooled rapidly in ice bath for 5 min. This snap-cooling causes the RNA to adopt the kinetically favored hairpin rather than thermodynamically favored duplexes.
The relative affinity of each polyamine for HIV-1 TAR RNA was determined using Fluorescence Resonance Energy Transfer (FRET)-based competitive binding assay with a fluorescein-labeled HIV-1 Tat peptide as described in the literature. The fluorescence experiments were performed with a Spectra Max Fluorimeter (Molecular Devices) at 25° C., with excitation and emission wavelengths of 495 and 570 nm, respectively. All samples were prepared in 96 well plates in 1×TK buffer (50 mM Tris, 20 mM KCl, pH=7.4) with 0.1% Trixton-100 (Sigma).
To a solution of 100 nM HIV-1 TAR RNA and 100 nM fluorescein-labeled HIV-1 Tat peptide, appropriate concentrations (0 nM to 100 μM) of the antagonists were added at 25° C.; total volume of the incubation solution was 80 μL. After 60 min, fluorescence changes of the sample solution were determined by the Spectra Max Fluorimeter Detector.

TAR RNA = assay: UV melting of TAR RNA in presence of ligands (Tm, ΔTm); type: binding, HIV-1
Experimental: The reactions were done in the presence of 10 mM sodium cacodylate, 0.5 mM EDTA, 0.1 mM MgCl2 pH 7.0. The heating rate was 0.3° C./min.
UV melting studies of TAR were performed in the presence and absence of various ligands (FIG. 13).

HIVNL4-3 in MT-2 cells [1] = assay: Release of reverse transcriptase into the culture supernatant; type: cell-based, HIV; conditions: for Release of reverse transcriptase into the culture supernatant, Day 2: mean of triplicate infections (SD), microM: DPA119 24, DPA52 25, DPA53 9, DPA54 17, DPA55 4, DPA56 8, DPA121 25, virus control 46,029; for Release of reverse transcriptase into the culture supernatant, Day 4 / Release of reverse transcriptase into the culture supernatant, Day 6: mean of triplicate infections; for Release of reverse transcriptase into the culture supernatant, Day 4: virus control 928,112; for Release of reverse transcriptase into the culture supernatant, Day 6: virus control 1,078,741
Text: The disclosed conjugates also reduce the amount of reverse transcriptase (RT) released into the cell culture supernatant upon in vitro cell culture experiments (Table 14 below). […] It is possible that even though the cells are positive for HIV, they are making much fewer unspliced transcripts, and thus the virion release into the media remains suppressed. […] Anti-HIV activities can be routinely checked by measuring the percentage of cells positive for HIV antigens using immunofluorescence assay (IFA) and for the release of pelletable reverse transcriptase (RT) into the supernatant. For these assays, 500,000 MT-2 cells in 1 ml of media were added to the wells of a 24 well tissue culture plate. Next, 0.5 ml of 4× concentrated compound was added to triplicate wells of the plate. The cells and compounds were incubated for 1 hr at 37 C. Finally, 0.5 ml of HIVNL4-3, produced in H9 cells (a CD4+ lymphoblastoid cell line), 100,000 cpm of RT activity per well, was added to each well. Virus control wells contained no compounds. This inoculum is at a multiplicity of infection less than 1. […] Next, cells were resuspended in the media and 0.5 mls of the total remaining volume was removed for IFA. Cells were combined from their triplicate infections, pelleted, and the enriched cells were air-dried onto glass slides. The dried cells were fixed in acetonemethanol (50:50). After fixing, cells were stained with HIV immunoglobulin, washed in PBS, and counter-stained with FITC-conjugated goat and human IgG. Slides were washed in PBS and the percentage of HIV-positive cells was determined by epifluorescence (Robinson et al. […] The supernatants from each well were precipitated at 4 C overnight in a solution including 30% polyethylene glycol. After precipitation, precipitate was lysed in a solution containing Triton X100, Tris buffer, and DTT. RT activity of each aliquot was determined as incorporation of 3H-dTTP into a poly rA-oligo dT template. After a one hour assay at 37 C, the incorporated dTTP was precipitated onto a ZetaProbe (BioRad) membrane. Slots were excised and placed into liquid scintillation cocktail. After overnight incubation, counts per minute for each sample was determined on a beta counter. Results were calculated as cpm/ml of original culture supernatant (Robinson et al.

HIVNL4-3 in MT-2 cells [2] = assay: HIV antigen synthesis in treated cells, immunofluorescence assay (IFA); type: cell-based; conditions: for percentage of cells positive for HIV antigens, Day 2: MT-2 cells, microM: DPA119 24, DPA52 25, DPA53 9, DPA54 17, DPA55 4, DPA56 8, DPA121 25, virus control 15%; for percentage of cells positive for HIV antigens, Day 4 / percentage of cells positive for HIV antigens, Day 6: same concentrations, virus control 100%
Experimental: Anti-HIV activities can be routinely checked by measuring the percentage of cells positive for HIV antigens using immunofluorescence assay (IFA) and for the release of pelletable reverse transcriptase (RT) into the supernatant. For these assays, 500,000 MT-2 cells in 1 ml of media were added to the wells of a 24 well tissue culture plate. Next, 0.5 ml of 4× concentrated compound was added to triplicate wells of the plate. The cells and compounds were incubated for 1 hr at 37 C. Finally, 0.5 ml of HIVNL4-3, produced in H9 cells (a CD4+ lymphoblastoid cell line), 100,000 cpm of RT activity per well, was added to each well. Virus control wells contained no compounds. This inoculum is at a multiplicity of infection less than 1. On days 2, 4, and 6, 0.75 mls of supernatants were removed and placed into individual microfuge tubes for RT assay. Next, cells were resuspended in the media and 0.5 mls of the total remaining volume was removed for IFA. Cells were combined from their triplicate infections, pelleted, and the enriched cells were air-dried onto glass slides. The dried cells were fixed in acetonemethanol (50:50). After fixing, cells were stained with HIV immunoglobulin, washed in PBS, and counter-stained with FITC-conjugated goat and human IgG. Slides were washed in PBS and the percentage of HIV-positive cells was determined by epifluorescence (Robinson et al. J Acquire Immune Defic Syndr 2:33-42, 1989).

| Compound | IC50 (HIV-1 TAR RNA; Table 17) [µM] | 5% Toxicity microM (cells) [µM] | Release of reverse transcriptase into the culture supernatant, Day 2 (HIVNL4-3 in MT-2 cells [1]) | Release of reverse transcriptase into the culture supernatant, Day 4 (HIVNL4-3 in MT-2 cells [1]) | Release of reverse transcriptase into the culture supernatant, Day 6 (HIVNL4-3 in MT-2 cells [1]) | percentage of cells positive for HIV antigens, Day 2 (HIVNL4-3 in MT-2 cells [2]) | percentage of cells positive for HIV antigens, Day 4 (HIVNL4-3 in MT-2 cells [2]) [%] | percentage of cells positive for HIV antigens, Day 6 (HIVNL4-3 in MT-2 cells [2]) [%] | IC50 (HIV-1 TAR RNA; Table 18) [µM] | other results |
| --- | --- | --- | --- | --- | --- | --- | --- | --- | --- | --- |
| NCC1O[C@H](OC2C(N)C[C@@H](N)C(O)[C@H]2O[C@@H]2O[C@H](Cn3cc(COCCCCCCCCOCc4cn(C[C@H]5O[C@@H](O[C@H]6C(O[C@H]7OC(CN)C(O)[C@H](O)C7N)C(N)C[C@@H](N)C6O)[C@@H](O)C5O[C@H]5O[C@@H](CN)C(O)C(O)C5N)nn4)nn3)C(O[C@H]3O[C@@H](CN)C(O)C(O)C3N)[C@@H]2O)C(N)[C@@H](O)C1O (stereo partly drawn) [DPA 58] | 0.061 ± 0.013 |  |  |  |  |  |  |  |  | ΔTm (TAR RNA; Melting point stabilization of HIV-TAR RNA by Neo Neo dimers, Table 11): 5.4 °C |
| NCC1O[C@H](OC2C(N)C[C@@H](N)C(O)[C@H]2O[C@@H]2O[C@H](Cn3cc(CCCCCCc4cn(C[C@H]5O[C@@H](O[C@H]6C(O[C@H]7OC(CN)C(O)[C@H](O)C7N)C(N)C[C@@H](N)C6O)[C@@H](O)C5O[C@H]5O[C@@H](CN)C(O)C(O)C5N)nn4)nn3)C(O[C@H]3O[C@@H](CN)C(O)C(O)C3N)[C@@H]2O)C(N)[C@@H](O)C1O (stereo partly drawn) [DPA 56] |  | 34 | 15,989 (2,523) cpm/ml | 105,704 cpm/ml | 412,475 cpm/ml | 5-7% | 40 | 100 |  |  |
| ribostamycin [DPA 508, reference compound] |  |  |  |  |  |  |  |  | 146 ± 38 |  |
| CN1CCN(c2ccc3nc(-c4ccc(OCc5cn(CCCCCCn6cc(CCCCc7cn(C[C@H]8OC(OC9C(O)[C@H](N)CC(N)[C@H]9O[C@H]9OC(CN)[C@@H](O)C(O)C9N)C(O)C8O[C@H]8OC(CN)[C@@H](O)C(O)C8N)nn7)nn6)nn5)cc4)[nH]c3c2)CC1 (stereo partly drawn) [DPA115] | 99.4 ± 21 |  |  |  |  |  |  |  |  | ΔTm (° C.) (TAR RNA; TAR RNA with ligand vs control, Table 10): 4.1 °C; Tm (° C.) (TAR RNA; TAR RNA with ligand, control without ligand 69.3): 73.4 °C |
| NC[C@@H]1O[C@H](O[C@H]2[C@@H](O)[C@H](O[C@@H]3[C@@H](O)[C@H](N)C[C@H](N)[C@H]3O[C@H]3O[C@H](CO)[C@@H](O)[C@H](O)[C@H]3N)O[C@@H]2CO)[C@H](N)[C@@H](O)[C@@H]1O [DPA 502, paromomycin, reference compound] |  |  |  |  |  |  |  |  | 11.4 ± 3.3 |  |
| NCC1O[C@H](OC2C(N)C[C@@H](N)C(O)[C@H]2O[C@@H]2O[C@H](Cn3cc(CCCc4cn(C[C@H]5O[C@@H](O[C@H]6C(O[C@H]7OC(CN)C(O)[C@H](O)C7N)C(N)C[C@@H](N)C6O)[C@@H](O)C5O[C@H]5O[C@@H](CN)C(O)C(O)C5N)nn4)nn3)C(O[C@H]3O[C@@H](CN)C(O)C(O)C3N)[C@@H]2O)C(N)[C@@H](O)C1O (stereo partly drawn) [DPA 52] |  | >138 | 21,485 (4,574) cpm/ml | 347,845 cpm/ml | 268,357 cpm/ml | 15% | 100 | 100 |  |  |

— patent US9492554B2, “Methods and compositions related to viral inhibition” (Clemson University Research Foundation (CURF), priority 2009, dated 2016)
